From patent US7205320B2, “Phosphodiesterase 4 inhibitors” (Memory Pharmaceuticals Corp., priority 2001, dated 2007)

How the values were obtained:
rats [1] = assay: Passive avoidance in rats, in vivo test for learning and memory (MK-801 amnesia); parameters: species or system rat; conditions: MK-801 0.1 mg/kg pretreatment, 24 hours after shock, p<0.001
Protocol: Passive Avoidance in Rats, an In vivo Test for Learning and Memory
The test was performed as previously described (Zhang, H.-T., Crissman, A. M., Dorairaj, N. R., Chandler, L. J., and O'Donnell, J. M., Neuropsychopharmacology, 2000, 23, 198–204.). The apparatus (Model E10-16SC, Coulbourn Instruments, Allentown, Pa.) consisted of a two-compartment chamber with an illuminated compartment connected to a darkened compartment by a guillotine door. The floor of the darkened compartment consisted of stainless steel rods through which an electric foot-shock could be delivered from a constant current source. All experimental groups were first habituated to the apparatus the day before the start of the experiment. During the training, the rat (Male Spraque-Dawley (Harlan) weighing 250 to 350 g) was placed in the illuminated compartment facing away from the closed guillotine door for 1 minute before the door was raised. The latency for entering the darkened compartment was recorded. After the rat entered the darkened compartment, the door was closed and a 0.5 mA electric shock was administered for 3 seconds. […] The latency for entering the darkened compartment was recorded for up to 180 seconds, at which time the trial was terminated.
(§1) All data were analyzed by analyses of variance (ANOVA); individual comparisons were made using Kewman-Keuls tests. […]

rats [2] = assay: Radial arm maze task in rats, in vivo test for learning and memory (MK-801 amnesia); parameters: species or system rat; conditions: MK-801 0.1 mg/kg, i.p., p<0.01
Protocol: Radial Arm Maze Task in Rats, an In vivo Test for Learning and Memory
The test was performed as previously described (Zhang, H.-T., Crissman, A. M., Dorairaj, N. R., Chandler, L. J., and O'Donnell, J. M., Neuropsychopharmacalogy, 2000, 23, 198–204.). Five days after initial housing, rats (male Spraque-Dawley (Harlan) weighing 250 to 350 g) were placed in the eight-arm radial maze (each arm was 60×10×12 cm high; the maze was elevated 70 cm above the floor) for acclimation for two days. Rats were then placed individually in the center of the maze for 5 minutes with food pellets placed close to the food wells, and then, the next day, in the wells at the end of the arms; 2 sessions a day were conducted. Next, four randomly selected arms were then baited with one pellet of food each. […] Four parameters were recorded: […]) working memory errors, i.e., entries into baited arms that had already been visited during the same trial; 2) reference memory errors, i.e., entries into unbaited arms; 3) total arm entries; and 4) the test duration (seconds), i.e., the time spent in the collection of all the pellets in the maze. […]
as §1

C[C@]12N[C@H](Cc3ccccc31)c1ccccc12 [MK-801]
Latency for entering the darkened compartment compared to the vehicle (rats [1]): markedly reduced
Frequencies of working and reference memory errors compared to control (rats [2]): increased
